Assay: In situ rotigotine salt screening (precipitate formation in ethanol/HFA 227 solution formulation)
Assay type: physicochemical
Conditions: for Observation, Immediate / Observation, 1 week at RT / Observation, 1 week at 5° C.: 1 mg/mL rotigotine free base plus acid in 10% (w/w) ethanol in HFA 227; for Observation, Immediate: immediately upon preparation; for Observation, 1 week at RT: stored 1 week at room temperature; for Observation, 1 week at 5° C.: another week at 5° C. after 1 week at RT
Method: Rotigotine, bulk drug substance, was purchased from Chemagis (Perrigo API). A stock solution of rotigotine was prepared by dissolving rotigotine particles in ethanol at 10 mg/mL. With 1.5 mL rotigotine stock solution added to formulation bottles, each formulation bottle contained 15 mg rotigotine. For preparation of acid stock solutions, it was assumed that complete reaction or ion-pairing between rotigotine and acid. Based on the molecular weight and number of anions of each acid as listed in Table 1, acids stock solutions were prepared by dissolving the required amount in ethanol.
Each formulation bottle was filed with 1.5 mL of rotigotine stock solution and 1.0 ml, of acid stock solution. The formulation bottles (PET bottles) were then sealed with continuous valves and vortexed for 30 seconds to mix the solution well. Finally, 17.6 g of 1,1,1,2,3,3,3-heptafluoropropane (HFA227 (Mexichem)) to make a final volume of 15 mL of rotigotine formulation. All the bottles were hand shaken for 10 seconds.
All in situ salt screening samples were made as 1 mg/mL of rotigtine free base in 10% (w/w) ethanol in HFA 227. Acids corresponding to the salt forms in Table 1 were added according to the molar ratio with rotigotine for complete reaction. As 1 mg/mL was the minimal required dose at the time of experiment, all formulations were tested at this level to screen out non-solution salt formulations.
These were the rotigotine citrate, fumarate, succinate, sulfate, tartrate, xinafoate salt formulations. […] rotigotine salt formulations were immediately ruled out as the precipitate formation was not desired. All clear solution samples were stored at room temperature (RT) for 1 week. […] These were rotigotine acetate, benzoate and mesylate salt formulations. These 3 rotigotine salt formulations were also ruled out as precipitate formation is not desired. The rest of the samples remained as clear solutions (stable) at after another week at 5° C.

| Molecule | Observation, Immediate | Observation, 1 week at RT | Observation, 1 week at 5° C. | Solution formulation at the minimum required concentration (1 mg/mL, 10% (w/w) ethanol in HFA 227) |
| --- | --- | --- | --- | --- |
| CC(=O)O.CCCN(CCc1cccs1)[C@H]1CCc2c(O)cccc2C1 [Acetate, rotigotine acetate] | solution | red precipitate | – | – |
| CC(O)C(=O)O.CCCN(CCc1cccs1)[C@H]1CCc2c(O)cccc2C1 [Lactate, rotigotine lactate] | solution | solution | solution | – |
| O=S(=O)(O)O [Sulfate] | white precipitate | – | – | – |
| Benzoate | solution | red precipitate | – | – |
| Fumarate | white precipitate | – | – | – |
| Tartrate | white precipitate | – | – | – |
| rotigotine citrate | white precipitate | – | – | – |
| rotigotine glycolate | solution | solution | solution | – |
| rotigotine maleate | solution | solution | solution | stayed in solution |
| rotigotine palmitate | solution | solution | solution | – |
| rotigotine pamoate | solution | solution | solution | – |
| rotigotine propionate | solution | solution | solution | – |
| rotigotine stearate | solution | solution | solution | – |

— patent US20140377365A1, “SUSTAINED-RELEASE FORMULATION OF ROTIGOTINE” (MAP Pharmaceuticals, Inc., priority 2013, published 2014)
